Laboratory results as given in ChEMBL document CHEMBL3862012, “Methylene versus carbonyl bridge in the structure of new tubulin polymerization inhibitors with tricyclic A-rings” (Bioorg Med Chem, 2016).

What was measured:
Assay type in all cases: functional
[1] = Cytotoxicity against human HT-29 cells assessed as growth inhibition at 10 uM after 48 hrs by SRB assay relative to control; conditions: HT-29, 48 h, read-out: GI
[2] = Cytotoxicity against human NCI-H322M cells assessed as growth inhibition at 10 uM after 48 hrs by SRB assay relative to control; conditions: read-out: GI
[3] = Cytotoxicity against human MCF7 cells assessed as growth inhibition at 10 uM after 48 hrs by SRB assay relative to control; conditions: MCF7, 48 h, read-out: GI
[4] = Cytotoxicity against human OVCAR8 cells assessed as growth inhibition at 10 uM after 48 hrs by SRB assay relative to control; conditions: OVCAR-8, 48 h, read-out: GI
[5] = Cytotoxicity against human OVCAR3 cells assessed as growth inhibition at 10 uM after 48 hrs by SRB assay relative to control; conditions: OVCAR-3, 48 h, read-out: GI
[6] = Cytotoxicity against human SW620 cells assessed as growth inhibition at 10 uM after 48 hrs by SRB assay relative to control; conditions: SW-620, 48 h, read-out: GI
[7] = Cytotoxicity against human LOXIMVI cells assessed as growth inhibition at 10 uM after 48 hrs by SRB assay relative to control; conditions: LOX IMVI, read-out: GI
[8] = Cytotoxicity against human EKVX cells assessed as growth inhibition at 10 uM after 48 hrs by SRB assay relative to control; conditions: read-out: GI
[9] = Cytotoxicity against human PC3 cells assessed as growth inhibition at 10 uM after 48 hrs by SRB assay relative to control; conditions: PC-3, 48 h, read-out: GI
[10] = Cytotoxicity against human MOLT4 cells assessed as growth inhibition at 10 uM after 48 hrs by SRB assay relative to control; conditions: MOLT-4, 48 h, read-out: GI
[11] = Cytotoxicity against human CCRF-CEM cells assessed as growth inhibition at 10 uM after 48 hrs by SRB assay relative to control; conditions: read-out: GI
[12] = Cytotoxicity against human NCI-H23 cells assessed as growth inhibition at 10 uM after 48 hrs by SRB assay relative to control; conditions: NCI-H23, 48 h, read-out: GI
[13] = Cytotoxicity against human NCI-H460 cells assessed as growth inhibition at 10 uM after 48 hrs by SRB assay relative to control; conditions: NCI-H460, 48 h, read-out: GI
[14] = Cytotoxicity against human OVCAR5 cells assessed as growth inhibition at 10 uM after 48 hrs by SRB assay relative to control; conditions: OVCAR-5, 48 h, read-out: GI
[15] = Cytotoxicity against human RXF393 cells assessed as growth inhibition at 10 uM after 48 hrs by SRB assay relative to control; conditions: RXF 393, 48 h, read-out: GI
[16] = Cytotoxicity against human MALME-3M cells assessed as growth inhibition at 10 uM after 48 hrs by SRB assay relative to control; conditions: read-out: GI
[17] = Cytotoxicity against human UO31 cells assessed as growth inhibition at 10 uM after 48 hrs by SRB assay relative to control; conditions: UO-31, 48 h, read-out: GI
[18] = Cytotoxicity against human IGROV1 cells assessed as growth inhibition at 10 uM after 48 hrs by SRB assay relative to control; conditions: IGROV-1, 48 h, read-out: GI
[19] = Cytotoxicity against human LOXIMVI cells assessed as growth inhibition after 48 hrs by SRB assay; conditions: LOX IMVI
[20] = Cytotoxicity against human NCI-H460 cells assessed as growth inhibition after 48 hrs by SRB assay; conditions: NCI-H460, 48 h
[21] = Cytotoxicity against human HT-29 cells assessed as growth inhibition after 48 hrs by SRB assay; conditions: HT-29, 48 h
[22] = Cytotoxicity against human PC3 cells assessed as growth inhibition after 48 hrs by SRB assay; conditions: PC-3, 48 h
[23] = Cytotoxicity against human SK-MEL-5 cells assessed as growth inhibition at 10 uM after 48 hrs by SRB assay relative to control; conditions: SK-MEL-5, 48 h, read-out: GI
[24] = Cytotoxicity against human RXF393 cells assessed as growth inhibition after 48 hrs by SRB assay; conditions: RXF 393, 48 h
[25] = Cytotoxicity against human HOP92 cells assessed as growth inhibition after 48 hrs by SRB assay; conditions: HOP-92, 48 h
[26] = Cytotoxicity against human OVCAR3 cells assessed as growth inhibition after 48 hrs by SRB assay; conditions: OVCAR-3, 48 h
[27] = Cytotoxicity against human M14 cells assessed as growth inhibition after 48 hrs by SRB assay; conditions: M14, 48 h
[28] = Cytotoxicity against human RPMI8226 cells assessed as growth inhibition after 48 hrs by SRB assay; conditions: RPMI-8226, 48 h
[29] = Cytotoxicity against human IGROV1 cells assessed as growth inhibition after 48 hrs by SRB assay; conditions: IGROV-1, 48 h
[30] = Cytotoxicity against human UO31 cells assessed as growth inhibition after 48 hrs by SRB assay; conditions: UO-31, 48 h
[31] = Cytotoxicity against human SKOV3 cells assessed as growth inhibition after 48 hrs by SRB assay; conditions: SK-OV-3, 48 h
[32] = Cytotoxicity against human MCF7 cells assessed as growth inhibition after 48 hrs by SRB assay; conditions: MCF7, 48 h
[33] = Cytotoxicity against human SF295 cells assessed as growth inhibition after 48 hrs by SRB assay; conditions: SF-295, 48 h
[34] = Cytotoxicity against human SK-MEL-5 cells assessed as growth inhibition after 48 hrs by SRB assay; conditions: SK-MEL-5, 48 h
[35] = Cytotoxicity against human HCT15 cells assessed as growth inhibition after 48 hrs by SRB assay; conditions: HCT-15, 48 h
[36] = Cytotoxicity against human HL-60(TB) cells assessed as growth inhibition after 48 hrs by SRB assay; conditions: HL-60, 48 h
[37] = Cytotoxicity against human SW620 cells assessed as growth inhibition after 48 hrs by SRB assay; conditions: SW-620, 48 h
[38] = Cytotoxicity against human BT549 cells assessed as growth inhibition after 48 hrs by SRB assay; conditions: BT-549, 48 h
[39] = Cytotoxicity against human NCI-ADR-RES cells assessed as growth inhibition after 48 hrs by SRB assay
[40] = Cytotoxicity against human K562 cells assessed as growth inhibition at 10 uM after 48 hrs by SRB assay relative to control; conditions: K562, 48 h, read-out: GI
[41] = Cytotoxicity against human OVCAR8 cells assessed as growth inhibition after 48 hrs by SRB assay; conditions: OVCAR-8, 48 h
[42] = Cytotoxicity against human NCI-H23 cells assessed as growth inhibition after 48 hrs by SRB assay; conditions: NCI-H23, 48 h

For `COc1ccc(CN2c3ccccc3Oc3ccccc32)cc1F`, the inhibition of growth at 10 µM [1] was 89%, the inhibition of growth at 10 µM [2] was 8% and the inhibition of growth at 10 µM [3] was 57%. For the same compound, the inhibition of growth at 10 µM [4] was 35%, the inhibition of growth at 10 µM [5] was 57% and the inhibition of growth at 10 µM [6] was 66%. It also gave an inhibition of growth at 10 µM [7] of 41%, an inhibition of growth at 10 µM [8] of 39% and an inhibition of growth at 10 µM [9] of 35%. It also gave an inhibition of growth at 10 µM [10] of 58%, an inhibition of growth at 10 µM [11] of 33% and an inhibition of growth at 10 µM [12] of 28%. The inhibition of growth at 10 µM [13] was 52%, the inhibition of growth at 10 µM [14] was 13% and the inhibition of growth at 10 µM [15] was 16%. It also gave an inhibition of growth at 10 µM [16] of 41%, an inhibition of growth at 10 µM [17] of 47% and an inhibition of growth at 10 µM [18] of 48%.

`COc1ccc(CN2c3ccccc3CCc3ccccc32)cc1F` showed an inhibition of growth at 10 µM [1] of 98%, an inhibition of growth at 10 µM [2] of 42% and a GI50 [19] of 725 nM. The GI50 [20] was 419 nM, the GI50 [21] was 319 nM and the inhibition of growth at 10 µM [3] was 80%. It also gave a GI50 [22] of 489 nM, an inhibition of growth at 10 µM [23] of 80% and a GI50 [24] of 312 nM. The GI50 [25] was 587 nM, the GI50 [26] was 285 nM and the GI50 [27] was 354 nM. The GI50 [28] was 644 nM, the inhibition of growth at 10 µM [5] was 100% and the GI50 [29] was 1570 nM. The inhibition of growth at 10 µM [6] was 79%, the inhibition of growth at 10 µM [7] was 50% and the GI50 [30] was 814 nM. It also gave an inhibition of growth at 10 µM [8] of 59%, a GI50 [31] of 471 nM and a GI50 [32] of 352 nM. The inhibition of growth at 10 µM [9] was 76%, the GI50 [33] was 333 nM and the GI50 [34] was 522 nM. For the same compound, the GI50 [35] was 428 nM, the inhibition of growth at 10 µM [10] was 84% and the GI50 [36] was 241 nM. It also gave an inhibition of growth at 10 µM [11] of 96%, an inhibition of growth at 10 µM [12] of 61% and a GI50 [37] of 386 nM. For the same compound, the inhibition of growth at 10 µM [13] was 93%, the GI50 [38] was 746 nM and the inhibition of growth at 10 µM [14] was 59%. It also gave a GI50 [39] of 456 nM, an inhibition of growth at 10 µM [15] of 82% and an inhibition of growth at 10 µM [40] of 94%. The inhibition of growth at 10 µM [16] was 16%, the GI50 [41] was 880 nM and the inhibition of growth at 10 µM [17] was 57%. It also gave an inhibition of growth at 10 µM [18] of 48% and a GI50 [42] of 672 nM.

`COc1ccc(CN2c3ccccc3Oc3ccccc32)cc1O` showed an inhibition of growth at 10 µM [1] of 17%, an inhibition of growth at 10 µM [2] of 44% and an inhibition of growth at 10 µM [3] of 73%. For the same compound, the inhibition of growth at 10 µM [4] was 64%, the inhibition of growth at 10 µM [5] was 81% and the inhibition of growth at 10 µM [6] was 73%. For the same compound, the inhibition of growth at 10 µM [7] was 61%, the inhibition of growth at 10 µM [8] was 65% and the inhibition of growth at 10 µM [9] was 69%. It also gave an inhibition of growth at 10 µM [10] of 75%, an inhibition of growth at 10 µM [11] of 88% and an inhibition of growth at 10 µM [12] of 66%. For the same compound, the inhibition of growth at 10 µM [13] was 87%, the inhibition of growth at 10 µM [14] was 9% and the inhibition of growth at 10 µM [15] was 50%. For the same compound, the inhibition of growth at 10 µM [16] was 55%, the inhibition of growth at 10 µM [17] was 68% and the inhibition of growth at 10 µM [18] was 55%.
